{"source": "ChEMBL document CHEMBL4622904", "about": "“The discovery of azetidine-piperazine di-amides as potent, selective and reversible monoacylglycerol lipase (MAGL) inhibitors” (Bioorg Med Chem Lett, 2020)", "key": {"[1]": {"assay": "Oral bioavailability in monkey at 10 mg/kg", "format": "ADME, organism-based, Macaca mulatta", "conditions": "rhesus monkey, in vivo"}, "[2]": {"target": "Tissue-type plasminogen activator (Homo sapiens) (UniProt P00750)", "sequence (P00750 36-562 limits assumed)": "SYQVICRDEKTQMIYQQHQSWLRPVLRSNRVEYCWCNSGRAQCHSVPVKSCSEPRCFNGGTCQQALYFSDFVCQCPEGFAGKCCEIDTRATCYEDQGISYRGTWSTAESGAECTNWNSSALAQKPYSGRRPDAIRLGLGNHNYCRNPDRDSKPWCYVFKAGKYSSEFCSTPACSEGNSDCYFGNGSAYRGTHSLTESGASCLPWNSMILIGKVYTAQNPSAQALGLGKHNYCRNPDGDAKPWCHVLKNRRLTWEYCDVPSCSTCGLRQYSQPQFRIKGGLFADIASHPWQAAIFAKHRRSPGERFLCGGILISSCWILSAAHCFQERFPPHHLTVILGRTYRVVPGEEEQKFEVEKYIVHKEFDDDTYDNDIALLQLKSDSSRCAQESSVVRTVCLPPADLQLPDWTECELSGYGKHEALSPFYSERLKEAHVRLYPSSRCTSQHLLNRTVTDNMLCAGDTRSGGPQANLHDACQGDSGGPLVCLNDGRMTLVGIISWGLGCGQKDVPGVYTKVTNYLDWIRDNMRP", "assay": "Inhibition of TPA (unknown origin) at 10 uM relative to control"}, "Homo sapiens": {"species": "Homo sapiens", "assay": "Inhibition of elastase (unknown origin) at 10 uM relative to control"}, "Rattus norvegicus [3]": {"test_system": "Rattus norvegicus", "assay": "Reversal of complete freund's adjuvant-induced thermal hyperalgesia in Sprague-Dawley rat model assessed as increase in paw withdrawal latency time at 1 to 30 mg/kg, po pre-exposed to thermal stimuli followed by CFA injection and subsequent compound administration", "format": "functional"}, "[4]": {"assay": "Half life in rat at 10 mg/kg, po", "format": "ADME, organism-based", "conditions": "in vivo"}, "[5]": {"assay": "AUClast in monkey at 10 mg/kg, po", "format": "ADME, organism-based, Macaca mulatta", "parameters": "dose 10 mg/kg, time 0 - last, route oral", "conditions": "rhesus monkey, in vivo"}, "Rattus norvegicus [6]": {"test_system": "Rattus norvegicus", "assay": "Reversal of complete freund's adjuvant-induced thermal hyperalgesia in po dosed Sprague-Dawley rat model assessed as increase in paw withdrawal latency time pre-exposed to thermal stimuli followed by CFA injection and subsequent compound administration", "format": "functional"}, "Trypsin (Homo sapiens)": {"target": "Trypsin (Homo sapiens) (UniProt P07477+P07478+P35030)", "assay": "Inhibition of trypsin (unknown origin) at 10 uM relative to control", "format": "protein assay"}, "[7]": {"assay": "Tmax in dog at 10 mg/kg, po", "format": "ADME, organism-based, Canis lupus familiaris", "conditions": "in vivo"}, "Bacteria": {"test_system": "Bacteria", "assay": "Inhibition of bacterial streptokinase at 10 uM relative to control"}, "Tryptase (Homo sapiens)": {"target": "Tryptase (Homo sapiens) (UniProt Q9BZJ3+Q15661+Q9NRR2)", "assay": "Inhibition of tryptase (unknown origin) at 10 uM relative to control", "format": "protein assay"}, "[8]": {"assay": "Drug concentration in brain of Sprague-Dawley rat at 3 mg/kg, po", "format": "ADME, organism-based", "conditions": "in vivo, read-out: Ct"}, "[9]": {"target": "Prothrombin (Homo sapiens) (UniProt P00734)", "assay": "Inhibition of thrombin (unknown origin) at 10 uM relative to control"}, "[10]": {"target": "Coagulation factor X (Homo sapiens) (UniProt P00742)", "sequence (P00742 41-179 limits assumed)": "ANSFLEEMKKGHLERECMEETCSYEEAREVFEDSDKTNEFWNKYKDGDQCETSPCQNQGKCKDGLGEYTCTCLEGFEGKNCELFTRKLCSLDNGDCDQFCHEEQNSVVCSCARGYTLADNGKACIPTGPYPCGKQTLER", "sequence (P00742 235-488 limits assumed)": "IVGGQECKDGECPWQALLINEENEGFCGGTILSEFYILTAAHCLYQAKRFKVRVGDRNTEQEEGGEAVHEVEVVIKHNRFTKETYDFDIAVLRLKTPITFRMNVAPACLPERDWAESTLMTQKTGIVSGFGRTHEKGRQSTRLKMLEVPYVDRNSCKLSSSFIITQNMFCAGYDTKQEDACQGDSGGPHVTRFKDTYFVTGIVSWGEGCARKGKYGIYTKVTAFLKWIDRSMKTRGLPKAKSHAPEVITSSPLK", "assay": "Inhibition of factor 10a (unknown origin) at 10 uM relative to control"}, "[11]": {"assay": "Volume of distribution at steady state in rat at 10 mg/kg, po", "format": "ADME, organism-based", "conditions": "in vivo"}, "Rattus norvegicus [12]": {"test_system": "Rattus norvegicus", "assay": "Effect on 2-AG level in brain of Sprague-Dawley rat 1 mg/kg, po (reference value: 11.96 nmol/g)", "format": "functional"}, "[13]": {"assay": "Drug concentration in blood of Sprague-Dawley rat at 3 mg/kg, po", "format": "ADME, organism-based", "conditions": "in vivo, read-out: Ct"}, "Rattus norvegicus [14]": {"test_system": "Rattus norvegicus", "assay": "Effect on 2-AG level in brain of Sprague-Dawley rat 10 mg/kg, po (reference value: 11.96 nmol/g)", "format": "functional"}, "Rattus norvegicus [15]": {"test_system": "Rattus norvegicus", "assay": "Effect on 2-AG level in brain of Sprague-Dawley rat 30 mg/kg, po (reference value: 11.96 nmol/g)", "format": "functional"}, "[16]": {"assay": "Cmax in dog at 10 mg/kg, po", "format": "ADME, organism-based, Canis lupus familiaris", "parameters": "dose 10 mg/kg, route oral", "conditions": "in vivo"}, "Cannabinoid receptor 1": {"target": "Cannabinoid receptor 1 (Homo sapiens, UniProt P21554)", "sequence (P21554 whole entry)": "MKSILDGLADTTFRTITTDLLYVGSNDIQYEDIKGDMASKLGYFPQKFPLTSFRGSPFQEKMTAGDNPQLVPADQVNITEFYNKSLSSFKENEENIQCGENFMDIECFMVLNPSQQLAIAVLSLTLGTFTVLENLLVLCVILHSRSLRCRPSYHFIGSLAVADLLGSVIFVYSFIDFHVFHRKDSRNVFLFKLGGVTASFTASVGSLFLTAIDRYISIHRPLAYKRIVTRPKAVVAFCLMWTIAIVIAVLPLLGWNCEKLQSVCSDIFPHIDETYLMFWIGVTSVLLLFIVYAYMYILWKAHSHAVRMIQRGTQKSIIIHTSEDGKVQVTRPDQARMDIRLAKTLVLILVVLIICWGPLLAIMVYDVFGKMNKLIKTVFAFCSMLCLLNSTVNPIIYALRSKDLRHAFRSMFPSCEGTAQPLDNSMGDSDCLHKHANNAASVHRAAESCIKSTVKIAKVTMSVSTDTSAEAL", "assay": "Binding affinity to CB1 receptor (unknown origin)", "format": "ADME"}, "Chymase (Homo sapiens)": {"target": "T1, Chymase (Homo sapiens) (UniProt P23946)", "T1 sequence (whole entry)": "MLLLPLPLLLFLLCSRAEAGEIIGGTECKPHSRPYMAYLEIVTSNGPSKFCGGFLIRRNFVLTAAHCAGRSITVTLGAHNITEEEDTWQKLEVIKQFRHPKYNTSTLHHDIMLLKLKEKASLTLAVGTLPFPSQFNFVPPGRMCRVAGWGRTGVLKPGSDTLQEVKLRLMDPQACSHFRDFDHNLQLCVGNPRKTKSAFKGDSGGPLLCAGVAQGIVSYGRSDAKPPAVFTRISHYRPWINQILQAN", "assay": "Inhibition of chymase (unknown origin) at 10 uM relative to control"}, "[17]": {"assay": "Drug concentration in blood of Sprague-Dawley rat at 30 mg/kg, po", "format": "ADME, organism-based", "conditions": "in vivo, read-out: Ct"}, "Cannabinoid receptor 2": {"target": "Cannabinoid receptor 2 (Homo sapiens, UniProt P34972)", "sequence (P34972 whole entry)": "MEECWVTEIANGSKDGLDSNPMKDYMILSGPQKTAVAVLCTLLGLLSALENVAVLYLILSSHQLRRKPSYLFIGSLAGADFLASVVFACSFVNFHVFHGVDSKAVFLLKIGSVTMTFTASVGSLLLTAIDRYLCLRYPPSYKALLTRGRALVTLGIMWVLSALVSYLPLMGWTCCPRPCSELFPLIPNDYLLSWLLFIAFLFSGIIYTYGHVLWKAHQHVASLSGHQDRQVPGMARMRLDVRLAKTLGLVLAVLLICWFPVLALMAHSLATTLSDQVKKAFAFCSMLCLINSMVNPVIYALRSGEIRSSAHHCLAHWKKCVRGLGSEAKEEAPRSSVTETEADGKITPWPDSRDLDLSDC", "assay": "Binding affinity to CB2 receptor (unknown origin)", "format": "ADME"}, "[18]": {"target": "T2, Coagulation factor VII (Homo sapiens) (UniProt P08709)", "T2 sequence (whole entry)": "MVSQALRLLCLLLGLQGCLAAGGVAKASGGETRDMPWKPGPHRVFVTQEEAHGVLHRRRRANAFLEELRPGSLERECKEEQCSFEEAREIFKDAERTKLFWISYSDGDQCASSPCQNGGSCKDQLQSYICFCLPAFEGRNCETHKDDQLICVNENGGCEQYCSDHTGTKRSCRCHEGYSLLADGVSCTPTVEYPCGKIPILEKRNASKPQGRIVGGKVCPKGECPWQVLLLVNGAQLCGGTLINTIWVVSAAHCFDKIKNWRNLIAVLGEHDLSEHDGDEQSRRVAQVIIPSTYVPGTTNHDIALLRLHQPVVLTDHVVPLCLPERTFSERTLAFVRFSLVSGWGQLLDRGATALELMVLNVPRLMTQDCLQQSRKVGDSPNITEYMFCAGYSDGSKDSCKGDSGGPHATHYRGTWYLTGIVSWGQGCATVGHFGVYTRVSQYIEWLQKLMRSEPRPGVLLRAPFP", "assay": "Inhibition of factor 7a (unknown origin) at 10 uM relative to control"}, "[19]": {"assay": "Clearance in dog at 10 mg/kg, po", "format": "ADME, organism-based, Canis lupus familiaris", "conditions": "in vivo"}, "[20]": {"assay": "Drug concentration in brain of Sprague-Dawley rat at 10 mg/kg, po", "format": "ADME, organism-based", "conditions": "in vivo, read-out: Ct"}, "[21]": {"assay": "Clearance in monkey at 10 mg/kg, po", "format": "ADME, organism-based, Macaca mulatta", "conditions": "rhesus monkey, in vivo"}}}
{"smiles": "O=C(c1ccc2c(ccn2-c2ccc(F)cc2)c1)N1CC(N2CCN(C(=O)c3nccs3)CC2)C1", "values": [{"measurement": "bioavailability", "setting": "[1]", "result": 82, "unit": "%"}, {"measurement": "inhibition", "setting": "[2]", "result": 6, "unit": "%"}, {"measurement": "inhibition", "setting": "Homo sapiens", "result": 4, "unit": "%"}, {"measurement": "Time", "setting": "Rattus norvegicus [3]", "result": 100, "unit": "min"}, {"measurement": "half-life", "setting": "[4]", "result": 6.82, "unit": "h"}, {"measurement": "AUC(0-t)", "setting": "[5]", "result": 33500, "unit": "ng·h/mL"}, {"measurement": "ED50", "setting": "Rattus norvegicus [6]", "result": 3, "unit": "mg/kg"}, {"measurement": "inhibition", "setting": "Trypsin (Homo sapiens)", "result": -10, "unit": "%"}, {"measurement": "Tmax", "setting": "[7]", "result": 2, "unit": "h"}, {"measurement": "inhibition", "setting": "Bacteria", "result": 1, "unit": "%"}, {"measurement": "inhibition", "setting": "Tryptase (Homo sapiens)", "result": 2, "unit": "%"}, {"measurement": "concentration", "setting": "[8]", "result": 339, "unit": "nM"}, {"measurement": "inhibition", "setting": "[9]", "result": -1, "unit": "%"}, {"measurement": "inhibition", "setting": "[10]", "result": 0, "unit": "%"}, {"measurement": "Vdss", "setting": "[11]", "result": 1.22, "unit": "L/kg"}, {"measurement": "Activity", "setting": "Rattus norvegicus [12]", "result": 19.28, "unit": "nmol/g"}, {"measurement": "concentration", "setting": "[13]", "result": 135, "unit": "nM"}, {"measurement": "Activity", "setting": "Rattus norvegicus [14]", "result": 46.43, "unit": "nmol/g"}, {"measurement": "Activity", "setting": "Rattus norvegicus [15]", "result": 108.4, "unit": "nmol/g"}, {"measurement": "Cmax", "setting": "[16]", "result": 2860, "unit": "ng/mL"}, {"measurement": "IC50", "setting": "Cannabinoid receptor 1", "result": "> 10", "unit": "µM"}, {"measurement": "inhibition", "setting": "Chymase (Homo sapiens)", "result": 11, "unit": "%"}, {"measurement": "concentration", "setting": "[17]", "result": 3070, "unit": "nM"}, {"measurement": "IC50", "setting": "Cannabinoid receptor 2", "result": "> 10", "unit": "µM"}, {"measurement": "inhibition", "setting": "[18]", "result": -5, "unit": "%"}, {"measurement": "CL/F", "setting": "[19]", "result": 4.35, "unit": "mL/min/kg"}, {"measurement": "concentration", "setting": "[20]", "result": 668, "unit": "nM"}, {"measurement": "CL/F", "setting": "[21]", "result": 4.46, "unit": "mL/min/kg"}]}
